According to patent US11338007B2, “Combination formulation of three antiviral compounds” (priority 2016, dated 2022):

How the values were obtained:
Format in all cases: physicochemical
[1] = Impact of desiccant and packaging configuration on tablet stability (Tables 24A-24C); details: for I/D (%) / LS (%): tablets;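 on all read-outs here: stability of tablets stored with different desiccant amounts and packaging configurations, evaluating physical and chemical stability plus dissolution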
[2] = Stability of clinical film-coated tablets Batches A-D (Tables 14, 15A-15C); details: for LS (%): tablets Batch C, 1 g desiccant
Protocol: FIGS. 10-12 depict additional dissolution profiles for the sofosbuvir/velpatasvir SSD/voxilaprevir SSD tablets having the formulation described in Table 13 and which were used in phase 1, 2, and 3 clinical studies, where the dissolution testing was conducted at pH 5.0 acetate buffer containing 2.0% w/v polysorbate 80. Four batches of the sofosbuvir/velpatasvir SSD/voxilaprevir SSD tablets were tested, with Batch A manufactured at 100 kg and Batches B, C and D manufactured at 145 kg. All other aspects of the formulation and manufacturing process were otherwise equivalent. The four batches were packed in the same commercial configuration: 28 count, 100 mL HPDE bottle with 1 g silica gel desiccant canister and a polyester fiber coil. […] Moreover, for Batch A, the amount dissolved at 30 min remained between 98 and 100% for sofosbuvir, between 90 and 92% for velpatasvir SSD, and between 89 and 93% for voxilaprevir SSD. […] For Batch D, the amount dissolved at 30 min remained at 100% for sofosbuvir, between 90 and 91% for velpatasvir SSD, and between 89 and 91% for voxilaprevir SSD. Release of velpatasvir SSD and voxilaprevir SSD from the sofosbuvir/velpatasvir SSD/voxilaprevir SSD tablets associated with all four Batches was complete after 60 minutes.
Stability data associated with the sofosbuvir/velpatasvir SSD/voxilaprevir SSD film-coated tablets (Batch A) are presented in Table 14. […] No upward trend in the content of degradation products was observed over the time period studied. The water content for packaged tablets remained between 1.9 and 2.3% through 6 months storage at 40° C./75% RH, 30° C./75% RH, and 25° C./60% RH. As summarized in Table 14, the packaged tablets (Batch A) were physically stable with no change in XRPD patterns after 6 months storage.
Stability data associated with the sofosbuvir/velpatasvir SSD/voxilaprevir SSD film-coated tablets (Batches B-D) are presented in Tables 15A-15C, respectively. […] No upward trend in the content of degradation products was observed over the time period studied. The water content for packaged tablets remained between 1.8 and 2.3% through 6 months storage at 40° C./75% RH, 30° C./75% RH, and 25° C./60% RH. The packaged tablets were physically stable with no change in XRPD patterns after 6 months storage.
For Batch D, the packaged tablets had acceptable chemical stability for up to 1 month under all conditions with total impurities/degradation products of sofosbuvir remaining at 0.0%, velpatasvir SSD remaining between 0.7 and 0.8%, and voxilaprevir SSD remaining at 0.0%. No upward trend in the content of degradation products was observed over the time period studied. The water content for packaged tablets remained between 1.9 and 2.3% through 1 month storage at 40° C./75% RH, 30° C./75% RH, and 25° C./60% RH.

[3] = Photostability of tablet cores and film-coated tablets per ICH Q1B (Table 12)
Protocol: Tablet cores and film-coated tablets were evaluated per ICH Q1B guidelines with a total of illumination of more than 1.2 million-lux hours and a total irradiance of more than 200 W·hr/m^2.

[4] = Tablet dissolution as a function of medium pH and composition (FIGS. 13-15); details: Formulation G tablets; independent of medium pH and composition
[5] = closed, 1 g desiccant, 25° C./60% RH, 12 weeks
[6] = closed, 1 g desiccant, 25° C./60% RH, 24 weeks
[7] = closed, 1 g desiccant, 40° C./75% RH, 4 weeks
[8] = closed, 1 g desiccant, 40° C./75% RH, 12 weeks
[9] = closed, 1 g desiccant, 40° C./75% RH, 24 weeks
[10] = closed, 3 g desiccant, 25° C./60% RH, 12 weeks
[11] = closed, 3 g desiccant, 25° C./60% RH, 24 weeks
[12] = closed, 3 g desiccant, 40° C./75% RH, 4 weeks
[13] = closed, 3 g desiccant, 40° C./75% RH, 12 weeks
[14] = closed, 3 g desiccant, 40° C./75% RH, 24 weeks
[15] = closed, no desiccant, 25° C./60% RH, 12 weeks
[16] = closed, no desiccant, 25° C./60% RH, 24 weeks
[17] = closed, no desiccant, 40° C./75% RH, 4 weeks
[18] = closed, no desiccant, 40° C./75% RH, 12 weeks
[19] = closed, no desiccant, 40° C./75% RH, 24 weeks
[20] = desiccant study, Initial, time 0
[21] = Batch A, 25° C./60% RH, 3 months
[22] = Batch A, 25° C./60% RH, 6 months
[23] = Batch A, 30° C./75% RH, 3 months
[24] = Batch A, 30° C./75% RH, 6 months
[25] = Batch A, 40° C./75% RH, 1 month
[26] = Batch A, 40° C./75% RH, 3 months
[27] = Batch A, 40° C./75% RH, 6 months
[28] = film-coating 0% weight gain, Exposed to Light
[29] = film-coating 2.1% weight gain, Exposed to Light
[30] = film-coating 2.1% weight gain, Protected from Light
[31] = film-coating 3.4% weight gain, Exposed to Light
[32] = film-coating 3.4% weight gain, Protected from Light
[33] = film-coating 4.1% weight gain, Exposed to Light
[34] = film-coating 4.1% weight gain, Protected from Light
[35] = film-coating 5.4% weight gain, Protected from Light

CC(C)OC(=O)C(C)N[P@](=O)(OC[C@H]1O[C@@H](n2ccc(=O)[nH]c2=O)[C@](C)(F)[C@@H]1O)Oc1ccccc1 (stereo in doubt) [sofosbuvir, (S)-isopropyl 2-(((S)-(((2R,3R,4R,5R)-5-(2,4-dioxo-3,4-dihydropyrimidin-1(2H)-yl)-4-fluoro-3-hydroxy-4-methyltetrahydrofuran-2-yl)methoxy)(phenoxy)phosphoryl)amino)propanoate]
total impurities/degradation products ([1]; desiccant study (0, 1, 3 g), all conditions, 6 months): 0.0% | I/D (%) [1, 5]: 0.0% | LS (%) [1, 5]: 99.3% | I/D (%) [1, 6]: 0.0% | LS (%) [1, 6]: 100.4% | I/D (%) [1, 7]: 0.0% | LS (%) [1, 7]: 100.0% | I/D (%) [1, 8]: 0.0% | LS (%) [1, 8]: 99.4% | I/D (%) [1, 9]: 0.0% | LS (%) [1, 9]: 101.7% | I/D (%) [1, 10]: 0.0% | LS (%) [1, 10]: 100.3% | I/D (%) [1, 11]: 0.0% | LS (%) [1, 11]: 101.6% | I/D (%) [1, 12]: 0.0% | LS (%) [1, 12]: 100.0% | I/D (%) [1, 13]: 0.0% | LS (%) [1, 13]: 99.9% | I/D (%) [1, 14]: 0.0% | LS (%) [1, 14]: 102.3% | I/D (%) [1, 15]: 0.0% | LS (%) [1, 15]: 99.3% | I/D (%) [1, 16]: 0.0% | LS (%) [1, 16]: 100.2% | I/D (%) [1, 17]: 0.0% | LS (%) [1, 17]: 101.4% | I/D (%) [1, 18]: 0.0% | LS (%) [1, 18]: 100.3% | I/D (%) [1, 19]: 0.0% | LS (%) [1, 19]: 100.4% | I/D (%) [1, 20]: 0.0% | LS (%) [1, 20]: 102.1% | LS [2, 21]: 102.7% | Total Imp./Deg. [2, 21]: 0.0% | LS [2, 22]: 99.0% | Total Imp./Deg. [2, 22]: 0.0% | LS [2, 23]: 100.3% | Total Imp./Deg. [2, 23]: 0.0% | LS [2, 24]: 98.1% | Total Imp./Deg. [2, 24]: 0.0% | LS [2, 25]: 99.7% | Total Imp./Deg. [2, 25]: 0.0% | LS [2, 26]: 101.7% | Total Imp./Deg. [2, 26]: 0.0% | LS [2, 27]: 98.7% | Total Imp./Deg. [2, 27]: 0.0% | LS ([2]; Batch A, Initial): 99.0% | Total Imp./Deg. ([2]; Batch A, Initial): 0.0% | total impurities/degradation products ([2]; Batch A, up to 6 months under all conditions): 0.0% | LS ([2]; Batch B, 25° C./60% RH, 3 months): 100.7% | LS ([2]; Batch B, 25° C./60% RH, 6 months): 100.1% | LS ([2]; Batch B, 30° C./75% RH, 3 months): 98.4% | LS ([2]; Batch B, 30° C./75% RH, 6 months): 98.8% | LS ([2]; Batch B, 40° C./75% RH, 1 month): 101.7% | LS ([2]; Batch B, 40° C./75% RH, 3 months): 99.8% | LS ([2]; Batch B, 40° C./75% RH, 6 months): 99.0% | LS ([2]; Batch B, Initial): 100.0% | Total Imp./Deg. ([2]; Batch B, Initial): 0.0% | LS ([2]; Batch D, 40° C./75% RH, 1 month): 99.7% | LS ([2]; Batch D, Initial): 99.8% | total impurities/degradation products ([2]; Batch D, up to 1 month under all conditions): 0.0% | total impurities/degradation products ([2]; Batches B and C, up to 6 months under all conditions): 0.0% | LS (%) ([2]; 25° C./60% RH, 3 months): 98.9% | LS (%) ([2]; 25° C./60% RH, 6 months): 98.8% | LS (%) ([2]; 30° C./75% RH, 3 months): 100.1% | LS (%) ([2]; 30° C./75% RH, 6 months): 99.1% | LS (%) ([2]; 40° C./75% RH, 1 month): 101.1% | LS (%) ([2]; 40° C./75% RH, 3 months): 99.4% | LS (%) ([2]; 40° C./75% RH, 6 months): 98.9% | LS (%) ([2]; Initial, time 0): 99.1% | LS [3, 28]: 101.5% | Total Imp./Deg. Products [3, 28]: 0.0% | Total Imp./Deg. Products ([3]; film-coating 0% weight gain, Protected from Light): 0.0% | LS [3, 29]: 101.7% | Total Imp./Deg. Products [3, 29]: 0.0% | LS [3, 30]: 101.2% | Total Imp./Deg. Products [3, 30]: 0.0% | LS [3, 31]: 100.6% | Total Imp./Deg. Products [3, 31]: 0.0% | LS [3, 32]: 101.8% | Total Imp./Deg. Products [3, 32]: 0.0% | LS [3, 33]: 102.0% | Total Imp./Deg. Products [3, 33]: 0.0% | LS [3, 34]: 101.2% | Total Imp./Deg. Products [3, 34]: 0.0% | Total Imp./Deg. Products ([3]; film-coating 5.4% weight gain, Exposed to Light): 0.0% | LS [3, 35]: 101.0% | Total Imp./Deg. Products [3, 35]: 0.0% | level of degradation products ([3]; tablets film-coated to weight gains 2.1 to 5.4%): 0.0% | loss after exposure to light ([3]; uncoated tablet cores): no change | dissolution complete within [4]: ≤ 20 min
